In assay [1] the test system is ATP10 (DNA, aptamer, inosine at 9 (G9I)) ACCTGGGGGAGTATTGCGGAGGAAGGT
Put plainly: ITC, one-site fit. As to conditions: Na+ (120 mM NaCl); 10 mM sodium acetate pH 5.5, 20 °C. In general terms: ITC needs no label: the signal is the heat of the interaction.

Assay [2] deals with ATP7 (DNA, aptamer) ACCTGGGCGCGGGAGTATTGCGGAGCGAGGAAGGT
Put plainly: UV melting, 260 nm. As to conditions: Na+ (120 mM NaCl); 10 mM sodium acetate pH 5.5; 95% ligand-bound; derived from two Tm (55.6 ± 0.5, 55.8 ± 0.6).

Assay [3] relates to ATP9 (DNA, aptamer, inosine at 22 (G22I)) ACCTGGGGGAGTATTGCGGAGGAAGGT
Put plainly: ITC, one-site fit. As to conditions: Na+ (120 mM NaCl); 10 mM sodium acetate pH 5.5, 20 °C.

The subject of assay [4] is ATP3 (DNA, aptamer) ACCTGGGGGAGTATTGCGGAGGAAGGT
Put plainly: ITC, two-site cooperative fit. The note with it: Na+ (120 mM NaCl), 10 mM sodium acetate pH 5.5, 20 °C, site 1 of 2.

Assay [5] shares this test system. Put plainly: UV melting, 260 nm. As to conditions: Na+ (120 mM NaCl); 10 mM sodium acetate pH 5.5; 95% ligand-bound; derived from two Tm (45.2 ± 0.5, 44.2 ± 1.5).
Assay [6] has as its system Apt1d-GC2 (DNA, aptamer) TTCGGGGCGTATTGCGCAGGAA
Put plainly: ITC. The note with it: Na+ (100 mM NaCl), Mg2+ (2 mM MgCl2); 10 mM HEPES pH 7.6, 20 °C; 100 µM DNA.

In assay [7] the test system is ATP17 (DNA, aptamer) ACCTGGGCGGGGAGTATTGCGGACGAGGAAGGT
Put plainly: ITC, two-site cooperative fit. The note with it: Na+ (120 mM NaCl); 10 mM sodium acetate pH 5.5, 20 °C; 100 µM DNA; site 1 of 2.

Assay [8] deals with ATP7 (DNA, aptamer) ACCTGGGCGCGGGAGTATTGCGGAGCGAGGAAGGT
Put plainly: ITC, two independent sites fit. As to conditions: Na+ (120 mM NaCl); 10 mM sodium acetate pH 5.5, 20 °C; 100 µM DNA; site 1 of 2.

Assay [9] relates to Apt1d (DNA, aptamer) TTCGGGGAGTATTGCGGAGGAA
Put plainly: ITC. As to conditions: Na+ (100 mM NaCl), Mg2+ (2 mM MgCl2); 10 mM HEPES pH 7.6, 20 °C; 100 µM DNA.

Assay [10] relates to Apt1d-GC1 (DNA, aptamer) TTCGGGGAGTATTGCGCAGGAA
Put plainly: ITC. As to conditions: Na+ (100 mM NaCl), Mg2+ (2 mM MgCl2); 10 mM HEPES pH 7.6, 20 °C; 100 µM DNA.

SMILES strings stand for the structures.

Regarding `Nc1ncnc2c1ncn2[C@@H]1O[C@H](CO)[C@@H](O)[C@H]1O`, the affinity in assay [1] was 188 ± 37 µM; in [3] it was 212 ± 69 µM. Moreover, the “melting temperature change (ΔTm, bound minus free)” value in [2] was 0.2 °C; in assay [5], -1.0 °C. Besides, the Kd1 in assay [4] (average of fits at 10-100 µM aptamer) amounted to 25 ± 15 µM; in [7] it was 44 ± 8 µM; in [8] it was 1.3 ± 0.5 µM. Also, the binding entry in assay [6] is recorded as “no”; in [9] it was “yes”; in assay [10], “no”.

As to `Nc1ncnc2c1ncn2[C@@H]1O[C@H](COP(=O)(O)O)[C@@H](O)[C@H]1O`, the Kd1 in assay [4] (70 µM DNA) came to 86 ± 26 µM.

As to `Nc1ncnc2c1ncn2[C@@H]1O[C@H](COP(=O)(O)OP(=O)(O)O)[C@@H](O)[C@H]1O`, the Kd1 in assay [4] (70 µM DNA) is given as 101 ± 33 µM.

Take `Nc1ncnc2c1ncn2[C@@H]1O[C@H](COP(=O)(O)OP(=O)(O)OP(=O)(O)O)[C@@H](O)[C@H]1O`: the Kd1 in assay [4] (70 µM DNA) came to 133 ± 55 µM.

(Values after PMC7609719 (2020).)
